Test results reported in patent publication US20220330549A1, “USE OF N-BENZYLBENZAMIDE-BASED COMPOUND AS HERBICIDE” (Northwest A&F University, priority 2020, published 2022).

Tests used:
Format in all cases: in vivo
Cyperaceae = assay: Post-emergence herbicidal activity test in a paddy field; parameters: key: level scale; higher level = more weed left vs blank control; conditions: 150 g a.i./ha (penoxsulam control 250 g(a.i.)/h)
Outline: (§1)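 Efficacy was visually estimated 15 and 30 days after spraying, grading weed coverage relative to an untreated neighbouring plot (level 2 = 0 to 2.5%, level 9 = 67.6 to 100%). Treatments were 150 g(a.i.)/ha from 10% emulsifiable concentrates applied at the 4-5 leaf rice stage, four repeats of 50 m^2 each.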

Broadleaf weed = assay: as above; parameters: key: level scale; higher level = more weed left vs blank control; conditions: 150 g a.i./ha (penoxsulam control 250 g(a.i.)/h)
Outline: as §1

Gramineae = assay: as above; parameters: key: level scale; higher level = more weed left vs blank control; conditions: 150 g a.i./ha (penoxsulam control 250 g(a.i.)/h)
Outline: as §1

Amaranthus retroflexus [1] = assay: Herbicidal activity test for indoor pre-emergence soil treatment; parameters: key: 1-9 levels; higher = more weed remaining vs blank control; conditions: 150 g a.i./ha, visual inspection 21 days after treatment
Outline: (§2)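 Compounds were formulated as 10% emulsifiable concentrates and sprayed onto the soil 24 h after sowing, at 150 g(a.i.)/ha. Soil was sandy loam (≤2% organic matter), with seeds under 0.5–2.0 cm cover, per NY/T 1155.3-2006. Visual 1–9 ratings relative to blank control were made after 21 days.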

Digitaria sanguinalis [2] = assay: as above; parameters: key: 1-9 levels; higher = more weed remaining vs blank control; conditions: 150 g a.i./ha, visual inspection 21 days after treatment
Outline: as §2

Barnyard grass [3] = assay: as above; parameters: key: level 1-9; higher = more weed remaining vs blank control; conditions: 150 g a.i./ha, visual inspection 21 days after treatment
Outline: as §2

green bristlegrass [4] = assay: as above; parameters: key: level 1-9; higher = more weed remaining vs blank control; conditions: 150 g a.i./ha, visual inspection 21 days after treatment
Outline: as §2

Piemarker [5] = assay: as above; parameters: key: level 1-9; higher = more weed remaining vs blank control; conditions: 150 g a.i./ha, visual inspection 21 days after treatment
Outline: as §2

Humulus scandens [6] = assay: as above; conditions: 150 g a.i./ha, visual inspection 21 days after treatment
Outline: as §2

goosegrass = assay: Field test for weed control in a corn field
Outline: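 Weed control efficacy against goosegrass was tested in a corn field following GB/T 17980.42-2000. Compounds formulated as 10% emulsifiable concentrates were diluted in water and sprayed post-emergence at 150 g(a.i.)/ha when corn had 2 to 5 leaves, with 4 replicates of 20 m^2 plots. Herbicidal activity was rated on a 1-9 scale by damage symptoms and severity.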

Portulaca oleracea = assay: Field test for weed control in a corn field
Outline: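 Field efficacy trial in corn following GB/T 17980.42-2000. Test compounds were prepared as 10% emulsifiable concentrates, diluted in water, and sprayed at 150 g(a.i.)/ha when corn had 2 to 5 leaves after sowing. Plots were 20 m^2 with 4 replicates per treatment. Herbicidal activity was scored on a 1-9 scale from weed damage symptoms and severity.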

Solanum nigrum = assay: Field test for weed control in a corn field
Outline: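 Post-emergence weed control was tested in a corn field following GB/T 17980.42-2000. Compounds were made into 10% emulsifiable concentrates, diluted in water and sprayed at 150 g(a.i.)/ha when corn had 2 to 5 leaves after sowing, in 20 m^2 plots with 4 replicates. Effects on Solanum nigrum were graded on a 1-9 scale relative to the blank control area.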

Barnyard grass [7] = assay: Field test for weed control in a corn field
Outline: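 Corn-field efficacy trial following GB/T 17980.42-2000. Test compounds were formulated as 10% emulsifiable concentrates, diluted in water and sprayed post-emergence at 150 g(a.i.)/ha when corn had 2 to 5 leaves. Each treatment was replicated 4 times on 20 m^2 plots. Barnyard grass control was rated on a 1-9 damage scale.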

Amaranthus retroflexus [8] = assay: Field test for weed control in a corn field
Outline: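 Field efficacy trial in a corn field following GB/T 17980.42-2000. Test compounds were formulated as 10% emulsifiable concentrates, diluted in water and sprayed post-emergence when corn had 2 to 5 leaves. Each treatment covered 20 m^2 with 4 replicates. A 25% mesotrione oil dispersion served as control. Damage to Amaranthus retroflexus was rated on a 1-9 scale against untreated blank plots.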

Acalypha australis = assay: Field test for weed control in a corn field
Outline: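 Post-emergence field trial in a corn field following GB/T 17980.42-2000. Test compounds were formulated as 10% emulsifiable concentrates, diluted in water, and sprayed at 150 g(a.i.)/ha when corn had 2 to 5 leaves, with 4 replicates on 20 m^2 plots. Mesotrione 25% oil dispersion served as the control agent. Weed control was scored on a 1-9 scale.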

green bristlegrass [9] = assay: Field test for weed control in a corn field
Outline: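 Post-emergence weed control was tested in a corn field following GB/T 17980.42-2000. When the corn had 2 leaves to 5 leaves after sowing, 10% emulsifiable concentrates diluted in water were sprayed at 150 g(a.i.)/ha on 20 m^2 plots, four replicates per treatment. Effects on green bristlegrass were scored on a 1-9 damage scale relative to the blank control area.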

Digitaria sanguinalis [10] = assay: Field test for weed control in a corn field
Outline: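 Field trial in a corn field following GB/T 17980.42-2000. Test compounds were formulated as 10% emulsifiable concentrates, diluted in water and sprayed post-emergence at 150 g(a.i.)/ha when corn had 2 to 5 leaves, with 4 replicates on 20 m^2 plots. Control of Digitaria sanguinalis was scored on a 1-9 scale based on weed damage relative to the untreated blank area.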

Chenopodium album = assay: Field test for weed control in a corn field
Outline: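 A corn-field efficacy trial following GB/T 17980.42-2000 tested post-emergence control of Chenopodium album. Test compounds formulated as 10% emulsifiable concentrates were diluted in water and sprayed at 150 g(a.i.)/ha when the corn had 2 leaves to 5 leaves, on 20 m^2 plots with 4 replicates. Herbicidal activity was rated on a 1-9 scale by damage symptoms and severity.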

nutgrass flatsedge = assay: Field test for weed control in a corn field
Outline: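 A corn field efficacy trial following GB/T 17980.42-2000 assessed post-emergence control of nutgrass flatsedge. Test compounds were formulated as 10% emulsifiable concentrates, diluted in water, and sprayed at 150 g(a.i.)/ha when the corn had 2 to 5 leaves. Each treatment had 4 replicates on 20 m^2 plots. Herbicidal activity was graded on a 1-9 scale by damage symptoms and severity.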

Convolvulus arvensis = assay: Field test for weed control in a corn field
Outline: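 Field trial of weed control against Convolvulus arvensis in corn, run following GB/T 17980.42-2000. Test agents were formulated as 10% emulsifiable concentrates and sprayed in water at 150 g(a.i.)/ha when corn plants had 2 to 5 leaves. Each treatment was replicated 4 times on 20 m^2 plots, and 25% mesotrione oil dispersion served as the control agent.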

Humulus scandens [11] = assay: Herbicidal activity test for indoor post-emergence spraying on stems and leaves; parameters: key: grade level by weed remaining vs blank control, e.g. 5 = 10.1-15%; conditions: 150 g a.i./ha, visual inspection 21 days after treatment
Outline: (§3)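 Visual inspection at 21 days after treatment gave a level rating, each level defined as a percentage band of the weed remaining in the blank control area. Plants were sprayed on stems and leaves after emergence, following NY/T 1155.4-2006.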

Barnyard grass [12] = assay: as above; parameters: key: grade level by weed remaining vs blank control, e.g. 5 = 10.1-15%; conditions: 150 g a.i./ha, visual inspection 21 days after treatment
Outline: as §3

Amaranthus retroflexus [13] = assay: as above; parameters: key: grade level by weed remaining vs blank control, e.g. 5 = 10.1-15%; conditions: 150 g a.i./ha, visual inspection 21 days after treatment
Outline: as §3

green bristlegrass [14] = assay: as above; parameters: key: grade level by weed remaining vs blank control, e.g. 5 = 10.1-15%; conditions: 150 g a.i./ha, visual inspection 21 days after treatment
Outline: as §3

Piemarker [15] = assay: as above; parameters: key: grade level by weed remaining vs blank control, e.g. 5 = 10.1-15%; conditions: 150 g a.i./ha, visual inspection 21 days after treatment
Outline: as §3

Digitaria sanguinalis [16] = assay: as above; parameters: key: grade level by weed remaining vs blank control, e.g. 5 = 10.1-15%; conditions: 150 g a.i./ha, visual inspection 21 days after treatment
Outline: as §3

[17] = 150 g(a.i.)/ha, 21 days after treatments
[18] = 150 g a.i./ha, 30 days after treatment

With `Cc1cccc(C(=O)NCc2cc(Cl)cc(Cl)c2)c1` [Compound B08] the “Herbicidal activity 15 days after treatment Cyperaceae” value (Cyperaceae; 15 days after treatment) was 1, the “Herbicidal activity 30 days after treatment Cyperaceae” value (Cyperaceae; 30 days after treatment) was 1 and the “Herbicidal activity 15 days after treatment Broadleaf weed” value (Broadleaf weed; 15 days after treatment) was 2 (equivalent to 0 to 2.5% of the weed in the blank control area). The “Herbicidal activity 30 days after treatment Broadleaf weed” value (Broadleaf weed; 30 days after treatment) was 1, the “Herbicidal activity 15 days after treatment Gramineae” value (Gramineae; 15 days after treatment) was 2 (equivalent to 0 to 2.5% of the weed in the blank control area) and the “Herbicidal activity 30 days after treatment Gramineae” value (Gramineae; 30 days after treatment) was 2 (equivalent to 0 to 2.5% of the weed in the blank control area). For the same compound, the “Herbicidal Activity Amaranthus retroflexus” value (Amaranthus retroflexus [1]) was 1, the “Herbicidal Activity Digitaria sanguinalis” value (Digitaria sanguinalis [2]) was 2 (equivalent to 0 to 2.5% of the weed in the blank control area) and the “Herbicidal Activity Barnyard grass” value (Barnyard grass [3]) was 2 (equivalent to 0 to 2.5% of the weed in the blank control area). For the same compound, the “Herbicidal Activity Green bristlegrass” value (green bristlegrass [4]) was 2 (equivalent to 0 to 2.5% of the weed in the blank control area), the “Herbicidal Activity Piemarker” value (Piemarker [5]) was 2 (equivalent to 0 to 2.5% of the weed in the blank control area) and the “Herbicidal Activity Humulus scandens” value (Humulus scandens [6]) was 2 (equivalent to 0 to 2.5% of the weed in the blank control area). For the same compound, the “Post-emergence weed control effect, Goose grass” value (goosegrass; 150 g a.i./ha, after treatment) was 1, the “controlling effect on goosegrass” value (goosegrass; [17]) was 1 and the “Post-emergence weed control effect, Portulaca oleracea” value (Portulaca oleracea; 150 g a.i./ha, after treatment) was 1. For the same compound, the “controlling effect on Portulaca oleracea” value (Portulaca oleracea; [17]) was 1, the “Post-emergence weed control effect, Solanum nigrum” value (Solanum nigrum; [18]) was 1 and the “controlling effect on Solanum nigrum” value (Solanum nigrum; [17]) was 1. For the same compound, the “Post-emergence weed control effect, Barnyard grass” value (Barnyard grass [7]; [18]) was 1, the “controlling effect on barnyard grass” value (Barnyard grass [7]; [17]) was 1 and the “Post-emergence weed control effect, Amaranthus retroflexus” value (Amaranthus retroflexus [8]; [18]) was 1. The “controlling effect on Amaranthus retroflexus” value (Amaranthus retroflexus [8]; [17]) was 1, the “Post-emergence weed control effect, Acalypha australis” value (Acalypha australis; 150 g a.i./ha, after treatment) was 1 and the “controlling effect on Acalypha australis” value (Acalypha australis; [17]) was 1. For the same compound, the “Post-emergence weed control effect, Green bristlegrass” value (green bristlegrass [9]; 150 g a.i./ha, after treatment) was 1, the “controlling effect on green bristlegrass” value (green bristlegrass [9]; [17]) was 1 and the “Post-emergence weed control effect, Digitaria sanguinalis” value (Digitaria sanguinalis [10]; 150 g a.i./ha, after treatment) was 1. For the same compound, the “controlling effect on Digitaria sanguinalis” value (Digitaria sanguinalis [10]; [17]) was 1, the “Post-emergence weed control effect, Chenopodium album” value (Chenopodium album; 150 g a.i./ha, after treatment) was 1 and the “controlling effect on Chenopodium album” value (Chenopodium album; [17]) was 1. For the same compound, the “Post-emergence weed control effect, Nutgrass flatsedge” value (nutgrass flatsedge; 150 g a.i./ha, after treatment) was 1, the “controlling effect on nutgrass flatsedge” value (nutgrass flatsedge; [17]) was 1 and the “Post-emergence weed control effect, Convolvulus arvensis” value (Convolvulus arvensis; 150 g a.i./ha, after treatment) was 1. The “controlling effect on Convolvulus arvensis” value (Convolvulus arvensis; [17]) was 1, the “Herbicidal Activity Humulus scandens” value (Humulus scandens [11]) was 1 and the “Herbicidal Activity Barnyard grass” value (Barnyard grass [12]) was 1. For the same compound, the “Herbicidal Activity Amaranthus retroflexus” value (Amaranthus retroflexus [13]) was 1, the “Herbicidal Activity Green bristlegrass” value (green bristlegrass [14]) was 2 (equivalent to 0 to 2.5% of the weed in the blank control area) and the “Herbicidal Activity Piemarker” value (Piemarker [15]) was 1. For the same compound, the “Herbicidal Activity Digitaria sanguinalis” value (Digitaria sanguinalis [16]) was 1.
